# ChEMBL document CHEMBL4673243, “Discovery of 9-Cyclopropylethynyl-2-((S)-1-[1,4]dioxan-2-ylmethoxy)-6,7-dihydropyrimido[6,1-a]isoquinolin-4-one (GLPG1205), a Unique GPR84 Negative Allosteric Modulator Undergoing Evaluation in a Phase II Clinical Trial” (J Med Chem, 2020)
# Assays:
# in vitro [1] = details: rat, cryopreserved hepatocytes
# in vivo [2] = details: Beagle, dog, po
# in vitro [3] = details: dog, liver microsomes
# [4] = Apparent permeability from apical to basolateral in human Caco2 cells at 10 uM measured after 60 mins by lucifer yellow dye based LC-MS/MS analysis; details: Caco-2
# [5] = Volume of distribution at steady state in CD1 mouse at 1 mg/kg, iv administered as single bolus dose using PEG-200/saline formulation measured after 24 hrs by LC-MS/MS analysis; details: in vivo
# in vivo [6] = details: male, Sprague-Dawley, rat, po
# in vivo [7] = details: Balb/c, mouse, plasma, po, 3 mg/kg
# [8] = Thermodynamic solubility of compound at pH 7.4; details: buffer
# [9] = Clearance in CD1 mouse at 1 mg/kg, iv administered as single bolus dose using PEG-200/saline formulation measured after 24 hrs by LC-MS/MS analysis; details: in vivo
# [10] = Volume of distribution at steady state in male Sprague-Dawley rat at 0.5 mg/kg, iv administered as single bolus dose using PEG-200/NaCl formulation measured after 24 hrs by LC-MS/MS analysis; details: in vivo
# [11] = Half-life in plasma of Balb/c mouse model of DSS-induced colitis at 10 mg/kg, po administered using PEG-200/water formulation starting from day 1 to 11 measured by LC-MS analysis
# in vitro [12] = details: mouse, liver microsomes
# in vivo [13] = details: CD1, mouse, po, 5 mg/kg
# in vivo [14] = details: Balb/c, mouse, plasma, po, 10 mg/kg
# in vivo [15] = details: CD1, mouse, iv, 1 mg/kg
# in vivo [16] = details: CD1, mouse, po, 5 mg/kg; remark: listed apart in the source
# [17] = Initial plasma concentration in male Sprague-Dawley rat at 0.5 mg/kg, iv administered as single bolus dose using PEG-200/NaCl formulation measured after 24 hrs by LC-MS/MS analysis
# in vivo [18] = details: Balb/c, mouse, plasma, po, 10 mg/kg; remark: listed apart in the source
# in vitro [19] = details: human, cryopreserved hepatocytes
# in vivo [20] = details: CD1, mouse, po, 5 mg/kg; remark: listed apart in the source
# [21] = Half-life in male Sprague-Dawley rat at 0.5 mg/kg, iv administered as single bolus dose using PEG-200/NaCl formulation measured after 24 hrs by LC-MS/MS analysis; details: in vivo
# [22] = Plasma protein binding in rat at 5 uM measured after 4 hrs by LC-MS/MS analysis
# in vivo [23] = details: Balb/cj, mouse, plasma, po, 10 mg/kg
# [24] = target: Cytochrome P450 2D6 (Homo sapiens) (UniProt P10635)
# [25] = Plasma protein binding in mouse at 5 uM measured after 4 hrs by LC-MS/MS analysis
# in vivo [26] = details: male, Sprague-Dawley, rat, po; remark: listed apart in the source
# in vivo [27] = details: CD1, mouse, po, 5 mg/kg; remark: listed apart in the source
# [28] = target: Cytochrome P450 2C9 (Homo sapiens) (UniProt P11712)
# [29] = Plasma protein binding in dog at 5 uM measured after 4 hrs by LC-MS/MS analysis
# Cytochrome P450 1A2 = target: T1, Cytochrome P450 1A2 (Homo sapiens, UniProt P05177); experiment: Inhibition of CYP1A2 in human liver microsomes using probe substrate and in presence of co-factor preincubated for 20 mins followed by substrate addition by LC-MS/MS analysis
# T1 sequence (P05177 whole entry): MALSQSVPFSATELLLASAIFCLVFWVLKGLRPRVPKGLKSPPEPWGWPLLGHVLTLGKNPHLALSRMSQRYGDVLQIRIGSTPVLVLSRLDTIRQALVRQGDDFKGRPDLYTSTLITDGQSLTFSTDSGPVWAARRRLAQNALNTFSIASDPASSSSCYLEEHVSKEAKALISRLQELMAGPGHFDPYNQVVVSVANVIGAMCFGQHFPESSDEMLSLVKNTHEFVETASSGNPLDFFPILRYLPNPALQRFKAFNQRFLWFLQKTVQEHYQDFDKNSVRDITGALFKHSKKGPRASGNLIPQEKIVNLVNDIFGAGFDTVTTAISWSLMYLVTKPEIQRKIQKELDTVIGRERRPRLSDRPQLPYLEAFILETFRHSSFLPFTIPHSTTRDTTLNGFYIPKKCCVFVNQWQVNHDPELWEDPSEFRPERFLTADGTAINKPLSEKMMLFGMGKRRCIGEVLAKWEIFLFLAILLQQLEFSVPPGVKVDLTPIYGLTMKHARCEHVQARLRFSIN
# Mus musculus = species on record: Mus musculus; experiment: Antiinflammatory activity in Balb/cj mouse model of DSS-induced colitis assessed as minimum effective dose; details: read-out: MED
# in vivo [30] = details: male, Sprague-Dawley, rat, po; remark: listed apart in the source
# [31] = Clearance in male Sprague-Dawley rat at 0.5 mg/kg, iv administered as single bolus dose using PEG-200/NaCl formulation measured after 24 hrs by LC-MS/MS analysis; details: in vivo
# [32] = Half life in Beagle dog at 0.5 mg/kg, iv administered as 10 mins infusion via catheter by LC-MS/MS analysis; details: in vivo
# [33] = Volume of distribution at steady state in Beagle dog at 0.5 mg/kg, iv administered as 10 mins infusion via catheter by LC-MS/MS analysis; details: in vivo
# in vitro [34] = details: rat, liver microsomes
# Cytochrome P450 3A4 = Cytochrome P450 3A4 (Homo sapiens, UniProt P08684); experiment: Time-dependent inhibition of CYP3A4 in human liver microsomes using testosterone as substrate and in presence of co-factor by LC-MS/MS analysis
# in vivo [35] = details: Beagle, dog, po; remark: listed apart in the source
# in vivo [36] = details: Beagle, dog, po; remark: listed apart in the source
# [37] = Inhibition of embelin-induced migration of rat neutrophils preincubated for 30 mins followed by embelin addition and measured after 1 hr by celltiter-glo assay; details: Neutrophil
# in vitro [38] = details: human, cryopreserved hepatocytes; remark: listed apart in the source
# [39] = Half-life in CD1 mouse at 1 mg/kg, iv administered as single bolus dose using PEG-200/saline formulation measured after 24 hrs by LC-MS/MS analysis; details: in vivo
# Cytochrome P450 3A4, sequence (P08684 whole entry): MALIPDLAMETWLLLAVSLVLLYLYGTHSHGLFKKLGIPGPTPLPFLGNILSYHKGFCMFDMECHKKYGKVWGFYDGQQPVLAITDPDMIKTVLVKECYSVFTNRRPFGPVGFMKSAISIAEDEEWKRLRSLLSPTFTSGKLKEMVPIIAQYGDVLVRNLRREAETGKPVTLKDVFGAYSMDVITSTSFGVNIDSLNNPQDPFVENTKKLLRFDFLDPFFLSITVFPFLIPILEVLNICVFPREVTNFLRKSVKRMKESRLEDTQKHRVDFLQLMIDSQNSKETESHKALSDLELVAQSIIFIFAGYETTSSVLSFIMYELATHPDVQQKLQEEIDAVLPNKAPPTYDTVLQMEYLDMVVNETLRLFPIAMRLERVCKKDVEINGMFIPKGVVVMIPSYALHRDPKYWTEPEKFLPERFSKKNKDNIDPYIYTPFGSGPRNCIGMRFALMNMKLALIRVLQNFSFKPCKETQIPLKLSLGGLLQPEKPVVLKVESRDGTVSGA
# Cytochrome P450 2D6 (Homo sapiens), sequence (P10635 whole entry, looked up): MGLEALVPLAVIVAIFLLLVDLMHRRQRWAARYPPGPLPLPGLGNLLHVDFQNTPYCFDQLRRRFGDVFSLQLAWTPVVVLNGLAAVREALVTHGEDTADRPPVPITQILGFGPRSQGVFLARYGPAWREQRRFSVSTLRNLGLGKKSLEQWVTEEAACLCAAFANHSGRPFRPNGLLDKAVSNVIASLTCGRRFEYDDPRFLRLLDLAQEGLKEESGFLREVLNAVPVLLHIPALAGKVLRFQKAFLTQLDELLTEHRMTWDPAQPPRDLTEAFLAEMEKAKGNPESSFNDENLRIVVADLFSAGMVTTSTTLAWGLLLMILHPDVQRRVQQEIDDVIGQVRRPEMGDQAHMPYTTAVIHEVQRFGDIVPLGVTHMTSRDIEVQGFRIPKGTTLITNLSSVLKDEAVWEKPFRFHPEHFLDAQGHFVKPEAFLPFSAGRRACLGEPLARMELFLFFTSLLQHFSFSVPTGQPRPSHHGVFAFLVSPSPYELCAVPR
# Cytochrome P450 2C9 (Homo sapiens), sequence (P11712 whole entry, looked up): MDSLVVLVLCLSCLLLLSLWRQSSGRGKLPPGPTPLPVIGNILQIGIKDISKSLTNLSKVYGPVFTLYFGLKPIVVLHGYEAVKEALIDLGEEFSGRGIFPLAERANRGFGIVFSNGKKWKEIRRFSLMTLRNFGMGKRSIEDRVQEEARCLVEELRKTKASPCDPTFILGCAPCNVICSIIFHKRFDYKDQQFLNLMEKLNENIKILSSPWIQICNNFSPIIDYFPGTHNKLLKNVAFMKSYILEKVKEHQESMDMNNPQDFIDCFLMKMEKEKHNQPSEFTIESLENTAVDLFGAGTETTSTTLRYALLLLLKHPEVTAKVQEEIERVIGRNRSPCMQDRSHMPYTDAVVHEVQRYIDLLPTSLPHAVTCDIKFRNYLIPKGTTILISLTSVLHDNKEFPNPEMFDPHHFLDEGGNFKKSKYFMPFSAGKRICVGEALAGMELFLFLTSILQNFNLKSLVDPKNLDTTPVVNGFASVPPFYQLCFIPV
compound,measurement,setting,value
O=c1nc(OC[C@@H]2COCCO2)cc2n1CCc1cc(C#CC3CC3)ccc1-2 [GLPG-1205],half-life at 1 µM,in vitro [1],> 3.33 h
same,Tmax,in vivo [2],0.5 h
same,"CLint scaled at 0.5 h, 1 µM",in vitro [3],5.34 L/h/kg
same,"Papp A→B at 1 h, 10 µM",[4],419 nm/s
same,Vd at 24 h,[5],0.6 L/kg
same,Cmax at 24 h,in vivo [6],1.16 µg/mL
same,AUC(0-t) at 24 h,in vivo [7],5.56 µg·h/mL
same,solubility thermodynamic,[8],7.75 µg/mL
same,clearance at 24 h,[9],0.9 L/h/kg
same,Vd at 24 h,[10],1.2 L/kg
same,half-life,[11],2.3 h
same,"CLint scaled at 0.5 h, 1 µM",in vitro [12],8 L/h/kg
same,bioavailability at 24 h,in vivo [13],> 100%
same,AUC(0-t) at 24 h,in vivo [14],50.4 µg·h/mL
same,AUC(0-t) at 24 h,in vivo [15],1.05 µg·h/mL
same,Tmax at 24 h,in vivo [16],0.5 h
same,C0 at 24 h,[17],0.395 µg/mL
same,Tmax,in vivo [18],1 h
same,half-life at 1 µM,in vitro [19],> 3.33 h
same,AUC(0-t) at 24 h,in vivo [20],15.3 µg·h/mL
same,half-life at 24 h,[21],1 h
same,"fraction unbound at 4 h, 5 µM",[22],0.023
same,Cmax,in vivo [23],8.14 µg/mL
same,IC50,[24],> 100 µM
same,"fraction unbound at 4 h, 5 µM",[25],0.022
same,bioavailability at 24 h,in vivo [26],> 100%
same,Cmax at 24 h,in vivo [27],4.59 µg/mL
same,IC50,[28],34.6 µM
same,"fraction unbound at 4 h, 5 µM",[29],0.065
same,IC50,Cytochrome P450 1A2,> 100 µM
same,minimal effective dose,Mus musculus,3 mg/kg
same,AUC(0-t) at 24 h,in vivo [30],4.47 µg·h/mL
same,clearance at 24 h,[31],0.7 L/h/kg
same,half-life at […],[32],1.4 h
same,Vd at […],[33],2 L/kg
same,"CLint scaled at 0.5 h, 1 µM",in vitro [34],4 L/h/kg
same,IC50,Cytochrome P450 3A4,> 50 µM
same,bioavailability,in vivo [35],> 100%
same,Cmax,in vivo [36],0.558 µg/mL
same,IC50,[37],0.111 µM
same,CLint scaled at 1 µM,in vitro [38],< 1.28 L/h/kg
same,half-life at 24 h,[39],0.6 h
